Results reported in patent US7256180B2 (priority 2000, dated 2007).
Where two headings read alike, the source gives them in different places. {C11P} = undecylphosphate group; {Acr} = acridine group

Tests used:
HSV-1 = format: cell-based, Herpes Simplex Virus 1; conditions: BHK cells, oligonucleotide 3.0 μM
HSV-1 virus (strain L2) = format: cell-based, Herpes Simplex Virus 1; conditions: Vero cells, 24 hours
HSV-1 (strain CI) = format: in vivo, mice

Free Anti-Influenza: AGCAAAAGCAGG, equivalently modified control (5' {C11P}, 3' {Acr}, sugars by position and backbone not given here)
HSV-1 Infectious Titre (CPE50/ml) (n = 7) (HSV-1): 9 (±2) × 10^3 CPE50/ml | HSV-1 Infectious Titre (CPE50/ml) (n = 7) (HSV-1 virus (strain L2); oligo conc. 0.2 μM): 1.1 (±0.4) × 10^6 CPE50/ml | HSV-1 Infectious Titre (CPE50/ml) (n = 7) (HSV-1 virus (strain L2); oligo conc. 1.0 μM): 0.9 (±0.2) × 10^6 CPE50/ml | HSV-1 Infectious Titre (CPE50/ml) (n = 7) (HSV-1 virus (strain L2); oligo conc. 5.0 μM): 0.6 (±0.3) × 10^6 CPE50/ml | Animals Survived/No. of Animals in group, Exp. 1 (HSV-1 (strain CI); mouse, in vivo, iv): 0/9 | Animals Survived/No. of Animals in group, Exp. 2 (HSV-1 (strain CI); mouse, in vivo, iv): 1/10 | Animals Survived/No. of Animals in group, Exp. 3 (HSV-1 (strain CI); mouse, in vivo, iv): 0/10 | % Survival (HSV-1 (strain CI); over Exp. 1-3): 7.0%
